Source: PMC5601738, “Facile total synthesis of lysicamine and the anticancer activities of the Ru^II, Rh^III, Mn^II and Zn^II complexes of lysicamine” (Oncotarget, 2017)
“And” between values parts separate entries of the source, which are not always exact repeats. Identical values can stand only once. Like-named read-outs stand apart in the source and are kept apart here.

Columns and labels:
[1] = test system: HL-7702 normal liver cell; assay: MTT assay, HL-7702 normal liver cell; assay type: cell-based; settings: 48 h; for IC50: MTT, mean ± SD from five independent experiments
HepG2 = assay: MTT assay, HepG2 cells; settings: for IC50: read-out: IC50 HepG2
NCI-H460 = assay: MTT assay, NCI-H460 cells; assay type: cell-based, human; settings: 48 h; for IC50: MTT, mean ± SD from five independent experiments
T-24 = assay: MTT assay, T-24 cells; assay type: cell-based, human; settings: 48 h; for IC50: MTT, mean ± SD from five independent experiments
BEL-7404 = assay: MTT assay, BEL-7404 cells; assay type: cell-based, human; settings: 48 h; for IC50: MTT, mean ± SD from five independent experiments
HepG2 xenograft = HepG2 xenograft model
pBR322 plasmid DNA = assay: Agarose gel electrophoresis assay with pBR322 plasmid DNA; assay type: biochemical; settings: pBR322 0.5 μg/μL, TBE buffer pH=8.5, 10 to 100 μM
Protocol: The DNA cleavage activity of 2, 3 and LY were tested by agarose gel electrophoresis assay using pBR322 plasmid DNA (0.5 μg/μL) in TBE buffer (pH=8.5). […] In contrast, under the same experimental conditions, when the concentration of 2 increased from 10 μM to 50 μM, the mobility of supercoiled DNA (form I) was reduced, but the relaxed form (form II) was not observed. When the concentration of 2 increased further to 70 μM, the form II DNA appeared. Almost all supercoiled DNA (form I) changed to relaxed DNA (form II) when the concentration of 2 reached 90 and 100 μM.
RT-qPCR was performed. The threshold cycle (Ct) values approval no. SCXK 2014-0002 and SYXK 2014-0003), […]
were housed at a sterile environment with conditions of […]
than 3 days before used. Complexes and LYwere all […]
is limited in 1% in final working solutions. KM mice. The large concentration of 2 in 10% (v/v) […]
ct-DNA CD spectrum as control.
The HepG2 xenograft mice were induced by
37 °C in the dark for 4 h.
The percent weight loss or gain was calculated […]
imaging system under a UV-Vis transilluminator.. Percent tumour growth inhibition after initiation of treatment with 2 and cisplatin were calculated by TGI= […]
initial for control group).
Animals were supplied by Guangxi Medical
University Laboratory Animal Centre (Guangxi, China, […]

HepG2 cells = assay: Cell cycle analysis by flow cytometry; assay type: cell-based, human; settings: HepG2, 24 h
ct-DNA = assay: CD absorption spectrometry assay with ct-DNA; assay type: binding; settings: ct-DNA 1×10^−4 M, [DNA]/[compound] 10:0.5 to 10:2.0
[2] = metal salts 1× 10-4 mol/L, 48 h

SMILES | inhibitive ratio HL-7702 ([1]; metal salts 1× 10-4 mol/L) [%] | inhibitive ratio Hep-G2 (HepG2; [2]) [%] | inhibitive ratio NCI-H460 (NCI-H460; metal salts 1× 10-4 mol/L) [%] | inhibitive ratio T-24 (T-24; metal salts 1× 10-4 mol/L) [%] | inhibitive ratio BEL-7404 (BEL-7404; metal salts 1× 10-4 mol/L) [%] | inhibitive ratio HL-7702 ([1]; 20 μmol/L, normal liver cell) | inhibitive ratio Hep-G2 (HepG2; 20 μmol/L, 48 h) [%] | inhibitive ratio NCI-H460 (NCI-H460; 20 μmol/L) [%] | inhibitive ratio T-24 (T-24; 20 μmol/L) [%] | inhibitive ratio BEL-7404 (BEL-7404; 20 μmol/L) [%] | also measured
O.O.O.[Cl][Rh]([Cl])[Cl] [RhCl3·3H2O, reference compound] | 30.12±1.57 | 24.02±1.02 | 25.41±1.25 | 27.09±1.11 | 35.29±0.97 | – | – | – | – | – | –
N.N.[Cl][Pt][Cl] [Cisplatin, cisplatin, reference compound] | – | – | – | – | – | 68.95±1.42% and 68.9% | 60.63±0.99 | 53.88±1.29 | 47.58±2.05 | 55.15±1.18 | IC50 ([1]; normal liver cell): 15.7 ± 1.27 µM; IC50 (HepG2; MTT, 48 h, mean ± SD from five independent experiments): 18.5 ± 0.78 µM; IC50 (NCI-H460): 18.3 ± 1.02 µM; IC50 (T-24): 28.1 ± 1.88 µM; BW% (body weight change) (HepG2 xenograft; 2.0 mg/kg per 2 days): -25.8%; loss in body weight (HepG2 xenograft; 2.0 mg/kg per 2 days): 25.8%; TGI (HepG2 xenograft; 2.0 mg/kg per 2 days i.p.): 83.16%; IC50 (BEL-7404): 12.4 ± 0.38 µM
COc1cc2ccnc3c2c(c1OC)-c1ccccc1C3=O [LY, lysicamine] | – | – | – | – | – | 45.49±0.78% and 45.5% | 53.13±1.19 | 52.85±0.32 | 42.40±2.14 | 32.27±1.73 | IC50 ([1]; Homo sapiens, L02, normal liver cell): 29.3 ± 0.72 µM; IC50 (HepG2; Homo sapiens, HepG2, 48 h): 23.9 ± 0.41 µM; IC50 (NCI-H460; Homo sapiens, NCI-H460): 19.14 ± 0.18 µM; IC50 (T-24; Homo sapiens, T-24): 34.5 ± 1.96 µM; DNA cleavage activity on supercoiled pBR322 DNA (pBR322 plasmid DNA): did not change the supercoiled DNA and its migration rate; effect on cell cycle progression (HepG2 cells): only blocked the cell cycle in the G1 phase; change of CD spectrum of ct-DNA / binding (ct-DNA): the binding was weak; IC50 (BEL-7404; Homo sapiens, BEL-7404): 47.5 ± 1.65 µM
O.O.O.O.O.O.[Mn+2].[O-][Cl+3]([O-])([O-])[O-].[O-][Cl+3]([O-])([O-])[O-] [Mn(ClO4)2·6H2O, reference compound] | 23.06±1.64 | 18.52±0.67 | 30.12±0.46 | 24.08±1.86 | 25.84±1.36 | – | – | – | – | – | –
